Measured values published in patent US20250296959A1, “B7-H3 TARGETING PEPTIDES AND CONSTRUCTS THEREOF” (Mariana Oncology Inc., priority 2024, published 2025).
Like-named read-outs stand apart in the source and are kept apart here. Starred links: 1 amine or outer side, 2 acyl side, 3 side chain; linkers in the order of their positions; H or OH if unused. Positions of bridges follow the written chain, without caps; N, C: chain ends. Non-standard residues stand in square brackets, D forms with d. Residues, ends and D or L forms follow the SMILES beside them. *: point of attachment. Ala(piperidin-4-yl) = O=C([C@H](CC1CCN([*:3])CC1)N[*:1])[*:2]; Phe(3-CH2NH2) = O=C([C@H](Cc1cccc(CN[*:3])c1)N[*:1])[*:2]; DOTA = O=C(O)CN1CCN(CC(=O)O)CCN(CC(=O)*)CCN(CC(=O)O)CC1; Trp(5-F) = N[C@@H](Cc1c[nH]c2ccc(F)cc12)C(=O)O; 1Nal = N[C@@H](Cc1cccc2ccccc12)C(=O)O; Val(3-OH) = CC(C)(O)[C@H](N)C(=O)O; 4Pal = N[C@@H](Cc1ccncc1)C(=O)O; Cha = N[C@@H](CC1CCCCC1)C(=O)O; aThr = C[C@H](O)[C@H](N)C(=O)O; Chg = N[C@H](C(=O)O)C1CCCCC1; Tle = CC(C)(C)[C@H](N)C(=O)O; hLeu = CC(C)CC[C@H](N)C(=O)O

Assays:
Calu-6 cell line [1] = assay: Cell associated (bound) fraction of [177Lu]Lu-labeled peptide in Calu-6 cells; type: cell-based, Human; details: 1 hour, 37° C.
Method: (§1) [^177Lu]LuCl3 was received from venders in HCl solution. For every mCi of [^177Lu]LuCl3 added to the reaction vial (1.5 mL Eppendorf vial), ammonium acetate buffer (0.2 M, pH 4.9, 100 μL, containing 1% w/v ascorbic acid and 6% v/v ethanol) and peptide conjugate (1 nmol) was added. The pH of the solution was determined to be approximately 5 by using pH strips. The reaction vial was incubated at 80° C., 700 RPM for 17-20 minutes. A sample from the reaction was analyzed by RP-HPLC using an Agilent Infinity II 1260 HPLC to determine reaction completion and radiochemical purity. HPLC conditions: Waters XBridge BEH C18 Column, 130 Å, 3.5 μm, 4.6 mm×250 mm; mobile phase: Solvent A=water (with 0.1% formic acid), solvent B=acetonitrile (with 0.1% formic acid). Gradients: 25-45% B in 10 minutes, 45-65% B in 12 minutes, 65-90% in 6 minutes at a flow rate of 0.5 mL/minute. Required amounts of the product were formulated in 1% PBSA for cell studies.
(§2) The study was conducted using Calu-6 cell line (Table 8)
(§3) Adherent cell studies: The cells were cultured in appropriate culture media (20 mL) in tissue culture treated T150 flasks at 37° C. and 5% CO2. Adherent cells were detached (60-70% confluent) using 5 mL Versene at 37° C. for 3 minutes. After confirming the viability using countess and count of detached cells using Trypan blue, the cells were centrifuged at 4° C. for 5 minutes (1,000 revolutions per minute). The cell pellet obtained was washed once with PBS and resuspended in 1% PBSA to obtain the desired cell concentration (5 million cells/mL).
Cell associated fraction: Cells were incubated with 300 μL (0.8 μCi) of the incubation buffer (containing radiolabeled peptide [^177Lu]Lu-test peptide) for 1 hour at 37 C (Table 9). Post incubation, the cells were pelleted and washed 2 times using cold PBS+1% BSA. The supernatant and washes were combined and counted together as “unbound fraction” in a gamma counter. The cells were then resuspended in 300 μL of 1% PBS+1% BSA and counted in the gamma counter as cell associated fraction (or bound fraction).
(§4) Calu-6 Cells are Human-Derived, Non-Engineered Lung Cancer Cell that Express B7-H3.

Calu-6 cell line [2] = assay: Net internalization of [177Lu]Lu-labeled peptide in Calu-6 cells; type: cell-based, Human; details: 1 hour, 37° C., glycine pH 2.5 acid wash
Method: as §1, §2, §3
Net internalization: The resuspended cells in 300 μl of 1% PBSA and counted in the gamma counter as “bound fraction” were collected in 1.5 mL Eppendorf tube and pelleted. The pelleted cells were incubated with 300 μl of 50 mM Glycine pH=2.5 for 3 minutes and then pelleted discarding the supernatant. This process was repeated one more time. The pelleted cells were washed with 300 μl of cold 1% PBSA and then resuspended in 300 μl 0.3 M NaOH. This was counted in the gamma counter as “internalized fraction”.
as §4

human 4lg B7-H3 = target: T1, human 4lg B7-H3 (Homo sapiens, UniProt Q5ZPR3); assay: Affinity determination by surface plasmon resonance (SPR) to 4Ig B7-H3; details: 4Ig B7-H3, 25° C. flow cell temperature
T1 sequence (Q5ZPR3 29-534): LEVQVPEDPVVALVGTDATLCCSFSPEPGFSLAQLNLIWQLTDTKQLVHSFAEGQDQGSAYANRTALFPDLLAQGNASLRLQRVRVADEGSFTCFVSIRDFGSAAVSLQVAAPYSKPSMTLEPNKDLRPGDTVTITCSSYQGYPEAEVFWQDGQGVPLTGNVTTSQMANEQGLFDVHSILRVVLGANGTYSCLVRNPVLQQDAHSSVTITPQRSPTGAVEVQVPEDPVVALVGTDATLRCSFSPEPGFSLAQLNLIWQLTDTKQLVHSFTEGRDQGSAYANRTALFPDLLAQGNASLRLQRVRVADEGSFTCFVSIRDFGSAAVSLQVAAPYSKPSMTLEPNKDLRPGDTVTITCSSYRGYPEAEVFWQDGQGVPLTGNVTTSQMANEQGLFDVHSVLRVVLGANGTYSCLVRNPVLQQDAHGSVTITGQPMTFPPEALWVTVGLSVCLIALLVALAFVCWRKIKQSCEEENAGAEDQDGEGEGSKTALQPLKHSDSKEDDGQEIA

CC(=O)N[C@@H](CCC(C)C)C(=O)N[C@@H](Cc1ccc(O)cc1)C(=O)N[C@H]1CSSC[C@@H](C(=O)N[C@@H](Cc2c[nH]c3ccc(F)cc23)C(=O)N[C@@H](Cc2ccccc2)C(=O)N[C@H](C(=O)N[C@H](CCCCNC(=O)CN2CCN(CC(=O)O)CCN(CC(=O)O)CCN(CC(=O)O)CC2)C(N)=O)[C@H](C)O)NC(=O)[C@H](Cc2ccc(O)cc2)NC(=O)[C@H](C(C)C)NC(=O)[C@H](CC(=O)O)NC(=O)[C@H](Cc2ccc(O)cc2)NC(=O)[C@H](CCCCN)NC(=O)CNC(=O)[C@H](C(C)C)NC1=O [compound 162, Ac-hLeu-Y-C-V-G-K-Y-D-V-Y-C-5FW-F-alloThr-dLys(DOTA)-CONH2] (Ac-[hLeu]YCVGKYDVYC[Trp(5-F)]F[aThr][dK](DOTA)-NH2; disulfide 3-11)
% cell associated fraction (Calu-6 cell line [1]): B (25<%≤50)
% net internalization (Calu-6 cell line [2]): A (%≤25)
Kd (human 4lg B7-H3; read-out: SPR KD—25° C.): < 1 nM

CC(=O)N[C@@H](CCC(C)C)C(=O)N[C@@H](Cc1ccc(O)cc1)C(=O)N[C@H]1CSSC[C@@H](C(=O)N[C@@H](Cc2cccc3ccccc23)C(=O)N[C@@H](Cc2ccccc2)C(=O)N[C@H](C(=O)N[C@H](CCCCNC(=O)CN2CCN(CC(=O)O)CCN(CC(=O)O)CCN(CC(=O)O)CC2)C(N)=O)[C@@H](C)O)NC(=O)[C@H](Cc2ccc(O)cc2)NC(=O)[C@H](C(C)C)NC(=O)[C@H](CC(=O)O)NC(=O)[C@H](Cc2ccc(O)cc2)NC(=O)[C@H](CCCCN)NC(=O)CNC(=O)[C@H](C(C)(C)C)NC1=O [compound 179, Ac-hLeu-Y-C-Tbg-G-K-Y-D-V-Y-C-1Nal-F-Thr-dLys(DOTA)-CONH2] (Ac-[hLeu]YC[Tle]GKYDVYC[1Nal]FT[dK](DOTA)-NH2; disulfide 3-11)
% cell associated fraction (Calu-6 cell line [1]): B (25<%≤50)
% net internalization (Calu-6 cell line [2]): A (%≤25)
Kd (human 4lg B7-H3; read-out: SPR KD—25° C.): < 1 nM

CC(=O)N[C@@H](CCC(C)C)C(=O)N[C@@H](Cc1ccc(O)cc1)C(=O)N[C@H]1CSSC[C@@H](C(=O)N[C@@H](Cc2c[nH]c3ccc(F)cc23)C(=O)N[C@@H](Cc2ccccc2)C(=O)N[C@H](C(N)=O)[C@@H](C)O)NC(=O)[C@H](Cc2ccc(O)cc2)NC(=O)[C@H](C(C)C)NC(=O)[C@H](CC(=O)O)NC(=O)[C@H](Cc2cccc(CNC(=O)CN3CCN(CC(=O)O)CCN(CC(=O)O)CCN(CC(=O)O)CC3)c2)NC(=O)[C@H](CCCCN)NC(=O)CNC(=O)[C@H](C(C)C)NC1=O [compound 182, Ac-hLeu-Y-C-V-G-K-MAF(DOTA)-D-V-Y-C-5FW-F-Thr-CONH2] (Ac-[hLeu]YCVGK[Phe(3-CH2NH2)](DOTA)DVYC[Trp(5-F)]FT-NH2; disulfide 3-11)
% cell associated fraction (Calu-6 cell line [1]): C (%>50)
% net internalization (Calu-6 cell line [2]): C (%>50)
Kd (human 4lg B7-H3; SPR KD—25° C.): < 1 nM

CC(=O)N[C@@H](CCC(C)C)C(=O)N[C@@H](Cc1ccc(O)cc1)C(=O)N[C@H]1CSSC[C@@H](C(=O)N[C@@H](Cc2c[nH]c3ccc(F)cc23)C(=O)N[C@@H](Cc2ccccc2)C(=O)N[C@H](C(=O)N[C@H](CCCCNC(=O)CN2CCN(CC(=O)O)CCN(CC(=O)O)CCN(CC(=O)O)CC2)C(N)=O)[C@@H](C)O)NC(=O)[C@H](Cc2ccc(O)cc2)NC(=O)[C@H](C2CCCCC2)NC(=O)[C@H](CC(=O)O)NC(=O)[C@H](Cc2ccncc2)NC(=O)[C@H](CCCCN)NC(=O)CNC(=O)[C@H](C(C)C)NC1=O [compound 190, Ac-hLeu-Y-C-V-G-K-4PyA-D-ChG-Y-C-5FW-F-Thr-dLys(DOTA)-CONH2] (Ac-[hLeu]YCVGK[4Pal]D[Chg]YC[Trp(5-F)]FT[dK](DOTA)-NH2; disulfide 3-11)
% cell associated fraction (Calu-6 cell line [1]): C (%>50)
% net internalization (Calu-6 cell line [2]): B (25<%≤50)
Kd (human 4lg B7-H3; read-out: SPR KD—25° C.): < 1 nM

CC[C@H](C)[C@@H]1NC(=O)[C@@H](NC(=O)[C@H](Cc2ccc(O)cc2)NC(=O)[C@H](CCC(C)C)NC(C)=O)CSSC[C@@H](C(=O)N[C@@H](Cc2c[nH]c3ccc(F)cc23)C(=O)N[C@@H](Cc2ccccc2)C(=O)N[C@H](C(N)=O)C(C)(C)O)NC(=O)[C@H](Cc2ccc(O)cc2)NC(=O)[C@H](C(C)C)NC(=O)[C@H](CC(=O)O)NC(=O)[C@H](CC2CCNCC2)NC(=O)[C@H](CCCCNC(=O)CN2CCN(CC(=O)O)CCN(CC(=O)O)CCN(CC(=O)O)CC2)NC(=O)CNC1=O [compound 203, Ac-hLeu-Y-C-Ile-G-Lys(DOTA)-PipAla-D-V-Y-C-5FW-F-hydroxyVal-CONH2] (Ac-[hLeu]YCIGK(DOTA)[Ala(piperidin-4-yl)]DVYC[Trp(5-F)]F[Val(3-OH)]-NH2; disulfide 3-11)
% cell associated fraction (Calu-6 cell line [1]): B (25<%≤50)
% net internalization (Calu-6 cell line [2]): A (%≤25)
Kd (human 4lg B7-H3; SPR KD—25° C.): < 1 nM

CC(=O)N[C@@H](CCC(C)C)C(=O)N[C@@H](Cc1ccc(O)cc1)C(=O)N[C@H]1CSSC[C@@H](C(=O)N[C@@H](Cc2c[nH]c3ccc(F)cc23)C(=O)N[C@@H](Cc2ccccc2)C(=O)N[C@H](C(=O)N[C@H](CCCCNC(=O)CN2CCN(CC(=O)O)CCN(CC(=O)O)CCN(CC(=O)O)CC2)C(N)=O)[C@@H](C)O)NC(=O)[C@H](Cc2ccc(O)cc2)NC(=O)[C@H](C2CCCCC2)NC(=O)[C@H](CC(=O)O)NC(=O)[C@H](Cc2ccc(O)cc2)NC(=O)[C@H](CCCCN)NC(=O)CNC(=O)[C@H](C(C)C)NC1=O [compound 215, Ac-hLeu-Y-C-V-G-K-Y-D-ChG-Y-C-5FW-F-Thr-dLys(DOTA)-CONH2] (Ac-[hLeu]YCVGKYD[Chg]YC[Trp(5-F)]FT[dK](DOTA)-NH2; disulfide 3-11)
% cell associated fraction (Calu-6 cell line [1]): C (%>50)
% net internalization (Calu-6 cell line [2]): A (%≤25)
Kd (human 4lg B7-H3; read-out: SPR KD—25° C.): < 1 nM

CC(=O)N[C@@H](CCC(C)C)C(=O)N[C@@H](Cc1ccc(O)cc1)C(=O)N[C@H]1CSSC[C@@H](C(=O)N[C@@H](Cc2c[nH]c3ccc(F)cc23)C(=O)N[C@@H](Cc2ccccc2)C(=O)N[C@H](C(=O)N[C@H](CCCCNC(=O)CN2CCN(CC(=O)O)CCN(CC(=O)O)CCN(CC(=O)O)CC2)C(N)=O)C(C)(C)O)NC(=O)[C@H](Cc2ccc(O)cc2)NC(=O)[C@H](C(C)C)NC(=O)[C@H](CC(=O)O)NC(=O)[C@H](CC2CCCCC2)NC(=O)[C@H](CC2CCNCC2)NC(=O)CNC(=O)[C@H](C(C)C)NC1=O [compound 227, Ac-hLeu-Y-C-V-G-PipAla-CHA-D-V-Y-C-5FW-F-hydroxyVal-dLys(DOTA)-CONH2] (Ac-[hLeu]YCVG[Ala(piperidin-4-yl)][Cha]DVYC[Trp(5-F)]F[Val(3-OH)][dK](DOTA)-NH2; disulfide 3-11)
% cell associated fraction (Calu-6 cell line [1]): C (%>50)
% net internalization (Calu-6 cell line [2]): B (25<%≤50)
Kd (human 4lg B7-H3; read-out: SPR KD—25° C.): < 1 nM

CC[C@H](C)[C@@H]1NC(=O)[C@@H](NC(=O)[C@H](Cc2ccc(O)cc2)NC(=O)[C@H](CCC(C)C)NC(C)=O)CSSC[C@@H](C(=O)N[C@@H](Cc2c[nH]c3ccc(F)cc23)C(=O)N[C@@H](Cc2ccccc2)C(=O)N[C@H](C(N)=O)C(C)(C)O)NC(=O)[C@H](Cc2ccc(O)cc2)NC(=O)[C@H](C(C)C)NC(=O)[C@H](CC(=O)O)NC(=O)[C@H](Cc2ccncc2)NC(=O)[C@H](CCCCNC(=O)CN2CCN(CC(=O)O)CCN(CC(=O)O)CCN(CC(=O)O)CC2)NC(=O)CNC1=O [compound 230, Ac-hLeu-Y-C-Ile-G-Lys(DOTA)-4PyA-D-V-Y-C-5FW-F-hydroxyVal-CONH2] (Ac-[hLeu]YCIGK(DOTA)[4Pal]DVYC[Trp(5-F)]F[Val(3-OH)]-NH2; disulfide 3-11)
% cell associated fraction (Calu-6 cell line [1]): B (25<%≤50)
% net internalization (Calu-6 cell line [2]): A (%≤25)
Kd (human 4lg B7-H3; SPR KD—25° C.): < 1 nM
